Measurements from patent EP3626820A1, “ANTICANCER COMPOSITIONS CONTAINING MIRNA MIMICS AND USES THEREOF” (Fundación Imdea Nanociencia, priority 2018, dated 2020).
pIC50: −log10 of the molar value.

Tests used:
[1] = tested on: Mel 202 cells; assay: Cell cycle analysis by flow cytometry (propidium iodide); type: cell-based; settings: Mel 202 cells harvested after treatment; SN38 25 nM; free (not on nanoparticles)
Experimental: The samples were trypsinized (BioWest) and fixed with paraformaldehyde 1 % (v/v). The samples were stained for 3 h with 10 µ g/sample RNAsa A from Thermo Scientific and 20 µ g/sample propidium iodide from Sigma. The cell cycle analysis was performed in a Beckman coulter Cytomics 500 Flow cytometer and acquired data were analyzed with the Multicycle software.
These experiments were performed in cytometry service of Biotechnology National Centre of Spain.

[2] = tested on: Mel 202 cells; assay: alamarBlue cell viability assay; type: cell-based; settings: Mel202, SN38 incubated 24 h, alamarBlue after additional 24 h
Experimental: Mel 202 cells were cultured in RPMI medium with 10 % fetal bovine serum (FBS), 1 % […]-Penicillin and 1 % L-Glutamine at 37 °C in an incubator. All the procedures were performed inside a laminar flow hood Telstar CV-30/70. Cells were grown in 24 wells plates (30000 cells).
stock solution of Resazurin sodium salt (1 mg/ml) in PBS was diluted 1 % (v/v) in complete RPMI. After incubation 3 h with the cells, the fluorescence was measured in a plate reader Synergy H4 Hybrid reader (BioTEK). Excitation (Ex) 550 nm; Emission (Em) 590 nm.
50 µl OptiMem was mixed with oligonucleotides (14, 15, 16, 17) or DNA mix 1. Then, it was mixed with 1 µl Lipofectamine 2000 in 50 µl optiMEM. The final mixture was incubated for 20 min and then 100 µl was added to cells. The final concentration of 14, 15, 16, 17 or DNA mix 1 was 140 nM. After 24 h the cells were washed 3 times with saline phosphate buffer (PBS) and complete medium was added.
SN38 stock solution was prepared at 100 µM in DMSO. Then different concentrations of SN38 (100 nM, 50 nM, 25 nM) were prepared in complete medium. It was incubated 24 h with the cells, then washed with PBS. After additional 24 h, the alamarBlue assay was carried out. […]
A volume of 100 µ L functionalized AuNPs were added in optiMEM (500 µ L total volume). The cells were incubated for 24 h, washed with PBS and the viability assessed.

With `CCc1c2c(nc3ccc(O)cc13)-c1cc3c(c(=O)n1C2)COC(=O)[C@]3(O)CC` [SN38, 7-ethyl-10-hidroxycamptothecin] the “effect on the cell cycle” value [1] was “significantly increases G2/M” and the pIC50 [2] was 7.00.
